The text below walks through data of patent US9481719B2, “Recombinant production of peptides” (BASF SE, priority 2009, dated 2016).

In one assay the test system is Bacillus subtilis. The note with it: compared to the starting fusion; cited from earlier work.
For another assay, the system named is Escherichia coli. The note with it: compared to the starting fusion; cited from earlier work.
Another assay deals with E. coli B. Put plainly: Growth inhibition of E. coli B cultures in LB medium (optical density after 24 h). It is filed as cell-based. Here is the method: Bacterial growth was monitored by measuring the optical density after 24 h. […] For this, said carboxyl groups were activated with 1-ethyl-3-(3-dimethylaminopropyl)carbodiimide hydrochloride and N-hydroxy-sulfosuccinimide, and amidated by subsequent addition of ammonia.

No end group written: not given here.

As to “KWKLFKKIPKFLHLAKKF (P18 Peptide) [SEQ ID NO:6, cecropin A-magainin 2 fusion peptide development described by Shin et al. 1999]”, the “antibacterial activity with respect to Bacillus subtilis” value in the assay with Bacillus subtilis is on record as “not adversely affected”. Besides, the “antibacterial activity with respect to Escherichia coli” value in the assay with Escherichia coli is reported as “not adversely affected”.

“PGKWKLFKKIPKFLHLAKKFG (P18 Peptide) [antimicrobial peptide released by acidic cleavage from a recombinant repetitive precursor protein]”: in the assay with E. coli B (E. coli B in LB medium, starting optical density 0.1 at 600 nm, shaking at 37° C., 24 h), the “peptide concentration for complete inhibition of growth (optical density at 600 nm after 24 h<0.15)” value was at least 31 ppm. For the substance “amidated P18 peptide: P18 peptide (SEQ ID NO: 23) whose C-terminal carboxyl group is amidated (PGKWKLFKKIPKFLHLAKKFG-NH2)”, the “antimicrobial activity after amidating the C-terminal carboxyl group, relative to non-amidated P18” value in the assay on E. coli B (C-terminal carboxyl group amidated (EDC / N-hydroxy-sulfosuccinimide, ammonia)) is “improve the antimicrobial activity further”.
